From PMC10353061 (ACS Pharmacology & Translational Science, 2023)

What was measured:
[1] = system: Wnt/β-catenin signaling pathway; test: Topflash/Fopflash luciferase report assay in SW480 cells; type: cell-based; conditions: 30 μM
Source text: We synthesized derivatives 5–10 bearing 5-membered and 6-membered heterocyclic rings at the position 3′ or 4′ of the B phenyl ring. […] SW480 cells show higher Wnt activation compared to HCT116 cells.[28] […] In SW480 cells, compounds 5–10 were in the 1.75%(10)–7.32%(7) range of residual luciferase activity, except 6(28.46%), compared to 3(21.61%); in HCT116 cells, compounds 5–10 were in the 0.37%(7)–5.88%(5) range, compared to 3 (18.75%) (Table 1 and Figure 5).
Figure 5 Residual luciferase activity (%) by compounds 5–10 and reference compound 3 in SW480 cells (left panel) and HCT116 cells (right panel). Data are represented as the mean ± SD of three independent experiments, each performed in triplicate.
Briefly, the Topflash plasmid (Beyotime, Zhejiang, China) contains 7 TCF/LEF binding sites, while the Fopflash plasmid (Beyotime, Zhejiang, China) contains 6 mutated TCF/LEF binding sites, which are located in the upstream of the luciferase reporter. SW480 and HCT116 cell lines were cultured in 90% DMEM (HyClone, #SH30243.01) plus 10% fetal bovine serum (Gibco, #10270) and plasmocin (mpp-39-03, InvivoGen), respectively. The Topflash/Fopflash vector and plasmid pTK-renilla together were co-transfected to the cells. […] The Dual-Glo luciferase assay kit (Promega, #E1910) was used to measure the luminescence intensity (Figure 2).

β-catenin = test: Wnt reporter assay (TOP/FOP luciferase) in LiCl-treated HCT116 cells; type: cell-based; conditions: Homo sapiens, HCT-116, read-out: IC50, inhibition of β-catenin (luciferase reporter), LiCl 50 mM, 24 h
Method: Compounds 9 and 10 were assayed at increasing 10 and 100 nM and 1 μM concentrations in HCT116 cells transfected with luciferase-based vectors and treated with LiCl (50 mM). TOP TK is a well-established Wnt reporter vector containing eight sequences of Tcf/Lef binding site upstream of the timidine kinase (TK) minimal promoter, driving the expression of firefly luciferase.
Figure 6 HCT116 cells were transfected with luciferase-based vectors and treated with LiCl (50 mM) together with increasing concentrations of compound 9 or 10. Cells were harvested 24 h post-treatment and assayed for luciferase activity. Inhibitions were calculated as the luciferase/renilla ratio of the treated samples vs. the luciferase/renilla ratio of the untreated (control) samples. Data are represented as the mean ± SD of three independent experiments, each performed in triplicate. **p < 0.01, ***p < 0.001, n.s = not significant, as determined by analysis of variance (ANOVA).
Luciferase assays were performed as previously described.[58],[59] Briefly, HCT116 cells were transfected with Topflash reporter (M50 Super 8x TOPFlash, containing 8 repeats of TCF/LEF binding sites) or Fopflash reporter (M51 Super 8x FOPFlash, containing the mutated TCF/LEF binding sites) plasmids using the Dreamfect Gold Transfection Reagent (#DG80500, OZ Biosciences). […]

HCT116 xenograft = test: In vivo HCT116 xenograft tumor growth inhibition; parameters: species or system BALB/C^nu/nu mice
Method: Ten-week-old female BALB/C^nu/nu mice were inoculated subcutaneously with HCT116 cells (1 × 10^8 cells/mL) at the logarithmic growth phase. Compound 9 (100 μL, 25 mg/kg) was administered through an intraperitoneal injection every 2 days after tumorigenesis. Mice were euthanized on day 30, and tumors on the backs were collected for the measurement of tumor volume and weight.
Figure 12 Compound 9 inhibited the in vivo tumorigenicity of human colorectal cancer line HCT116. (A) Tumor tissues. (B) Top panel. The volume of tumors originating. *p < 0.05 vs. the control group; t-test; n = 4. (B) Bottom panel. The weight of tumors originating. *p < 0.05 vs. the control group; t-test; n = 4. […] Magnification 200×.
Nuclear protein Ki67 is a proliferation marker of tumor cell proliferation and is an indicator in cancer diagnosis through a biopsy.[38] CD31 is a marker of angiogenesis, along with the vascular endothelial growth factor (VEGF).[39] CD31 has been found in the angiogenetic early breast cancer tissues and is highly expressed on the surface of endothelial cells.[40]
Briefly, all 10-week-old female BALB/C^nu/nu mice (8 mice) were purchased from the Shanghai University of Traditional Chinese Medicine with Institutional Animal Care and Use Committee approval in accordance with institutional guidelines. All mice were randomly divided into […]. In the #1 group (4 mice), 1 × 10^8 cells/mL from HCT116 at the logarithmic growth phase were harvested and inoculated subcutaneously into BALB/C^nu/nu mice and intraperitoneally injected with 100 μL of compound 9 (25 mg/kg) every 2 days after tumorigenesis. In the #2 group (4 mice), 1 × 10^8 cells/mL from […] at the logarithmic growth phase were harvested and inoculated subcutaneously into BALB/C^nu/nu mice and intraperitoneally injected 100 μL of saline every 2 days after tumorigenesis. After continuous feeding for 30 days, the mice were sacrificed, and the tumors were removed. The tumors were weighed, and the volumes were calculated using the following formula: tumor volume (cm^3) = (ab^2)/2 (a: the longest axis (cm), b: the shortest axis (cm))
Briefly, fresh tissues were immersed in 4% paraformaldehyde (Sigma-Aldrich) for fixation at room temperature for 30 min. The tissues were then dehydrated in an ethanol gradient, embedded in paraffin, sectioned (thickness: 6 μm), and immersed in xylene for dewaxing. Tissue sections were blocked with an immunohistochemical blocking solution (Beyotime Biotechnology Co., Ltd., Zhejiang, China) at 37 °C for 30 min. The blocking solution was then discarded, and the sections were washed 3 times at room temperature for 5 min each with an immunohistochemical washing solution (Beyotime Biotechnology). […]

[2] = 25 mg/kg i.p. every 2 days, day 30
[3] = immunofluorescence staining, 25 mg/kg i.p.

O=S(=O)(Nc1ccc(-c2ccccn2)cc1)c1ccc(Br)cc1 [Compound 9, 4-Bromo-N-(4-(pyridin-2-yl)phenyl)benzenesulfonamide]
% Luciferase Activity SW480 (residual) [1]: 8.75% | IC50 (β-catenin): > 1000 nM | tumor volume vs control group (saline) (HCT116 xenograft; [2]): significantly smaller | tumor weight vs control group (saline) (HCT116 xenograft; [2]): significantly smaller | expression of angiogenesis marker CD31 in tumor tissues (HCT116 xenograft; [3]): significantly lower expression | expression of proliferation factor Ki67 in tumor tissues (HCT116 xenograft; [3]): significantly lower expression
